Source: patent US10316017B2, “COT modulators and methods of use thereof” (Gilead Sciences, Inc., priority 2015, dated 2019)

Experiments:
[1] = test system: TNFα production in LPS-stimulated human monocytes; assay: Cot Monocyte TNFα Cell Based Assay; details: Homo sapiens, Monocyte, TNFα in LPS-stimulated human monocytes; read-out: EC50 TNF
Procedure, shortened: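 Percent-of-control values derive from TR-FRET ratios of TNFα in spun-down media, referenced to unstimulated and LPS-stimulated wells. Exposure: 1 h compound preincubation, then 50 pg/ml LPS for 4 h, both at 37 °C, with 0.5% final DMSO.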

[2] = target: T1, human Cot catalytic domain (30-397 amino acids) (Homo sapiens, UniProt P41279); assay: High Throughput Cot Biochemical Assay (KinEASE TR-FRET); details: Cot biochemical HTRF (KinEASE TR-FRET) assay; read-out: IC50 HTRF
T1 construct: Purified recombinant human Cot catalytic domain (30-397 amino acids) was purchased from Cama Biosciences; purchased Cama Biosciences (so in the source)
Procedure, shortened: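 Phosphorylation of 1 μM XL665-STK3 peptide by 5 nM Cot catalytic domain was measured by time-resolved FRET using a europium […] antibody. ATP was 400 μM; buffer was 10 mM MOPS pH 7.0 with Mg2+ and DTT.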

T1 sequence (P41279 30-397): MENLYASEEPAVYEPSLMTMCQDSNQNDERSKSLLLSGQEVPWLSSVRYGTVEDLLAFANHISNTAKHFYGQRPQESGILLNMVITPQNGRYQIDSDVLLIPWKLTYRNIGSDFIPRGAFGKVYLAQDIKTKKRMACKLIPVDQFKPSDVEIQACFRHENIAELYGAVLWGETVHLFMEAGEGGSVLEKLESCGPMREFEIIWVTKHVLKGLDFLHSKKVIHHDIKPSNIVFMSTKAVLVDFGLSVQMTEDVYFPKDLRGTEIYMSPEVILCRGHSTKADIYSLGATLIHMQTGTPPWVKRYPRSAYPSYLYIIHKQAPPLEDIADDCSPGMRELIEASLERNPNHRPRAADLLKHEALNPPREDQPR

| SMILES | EC50 [1] | IC50 [2] |
| --- | --- | --- |
| [2H][C@](Nc1cc(Cl)c2ncc(C#N)c(Nc3ccc(Cl)c(Cl)c3F)c2c1)(c1ccccc1)c1c[nH]nn1 [Example 463, (S)-8-chloro-4-((3,4-dichloro-2-fluorophenyl)amino)-6-((phenyl(1H-1,2,3-triazol-4-yl)methyl-d)amino)quinoline-3-carbonitrile] | 1410 nM | 144 nM |
| N#Cc1ccc([C@H](Nc2cc(Cl)c3ncc(C#N)c(Nc4ccc(Cl)c(Cl)c4F)c3c2)c2c[nH]nn2)cc1 [Example 464, (S)-8-chloro-6-(((4-cyanophenyl)(1H-1,2,3-triazol-4-yl)methyl)amino)-4-((3,4-dichloro-2-fluorophenyl)amino) quinoline-3-carbonitrile] | 694 nM | 61 nM |
| N#Cc1cccc([C@H](Nc2cc(Cl)c3ncc(C#N)c(Nc4ccc(Cl)c(Cl)c4F)c3c2)c2c[nH]nn2)c1 [Example 465, (S)-8-chloro-6-(((3-cyanophenyl)(1H-1,2,3-triazol-4-yl)methyl)amino)-4-((3,4-dichloro-2-fluorophenyl)amino) quinoline-3-carbonitrile] | 821 nM | 41 nM |
| N#Cc1cccc([C@H](Nc2cc(Cl)c3ncc(C#N)c(Nc4ccc(Cl)c(Cl)c4F)c3c2)c2cn(C3COC3)nn2)c1 [Example 466, (S)-8-chloro-6-(((3-cyanophenyl)(1-(oxetan-3-yl)-1H-1,2,3-triazol-4-yl)methyl)amino)-4-((3,4-dichloro-2-fluorophenyl)amino) quinoline-3-carbonitrile] | 1400 nM | 53 nM |
| N#Cc1cnc2c(Cl)cc(N[C@H](c3cn(C4COC4)nn3)c3ccc(F)cc3F)cc2c1Nc1cnc(F)c(F)c1 [Example 467, (S)-8-chloro-6-(((2,4-difluorophenyl)(1-(oxetan-3-yl)-1H-1,2,3-triazol-4-yl)methyl)amino)-4-((5,6-difluoropyridin-3-yl)amino)quinoline-3-carbonitrile] | 978 nM | 13 nM |
| COc1ccc(Nc2c(C#N)cnc3c(Cl)cc(N[C@@H](c4ccccc4)c4cn(C(C)(C)C)nn4)cc23)cn1 [Example 468, (S)-6-(((1-(tert-butyl)-1H-1,2,3-triazol-4-yl)(phenyl)methyl)amino)-8-chloro-4-((6-methoxypyridin-3-yl)amino)quinoline-3-carbonitrile] | 3150 nM | 173 nM |
| N#Cc1cnc2c(Cl)cc(N[C@@H](c3ccccc3)c3cn(CCCN4CCCC4)nn3)cc2c1Nc1ccc(F)c(C#N)c1F [Example 469, (S)-8-chloro-4-((3-cyano-2,4-difluorophenyl)amino)-6-((phenyl(1-(3-(pyrrolidin-1-yl)propyl)-1H-1,2,3-triazol-4-yl)methyl)amino)quinoline-3-carbonitrile] | 315 nM | 14 nM |
| CC(C)(C)N1CCC(n2cc([C@@H](Nc3cc(Cl)c4ncc(C#N)c(Nc5ccc(F)c(C#N)c5F)c4c3)c3ccccc3)nn2)CC1 [Example 470, (S)-6-(((1-(1-(tert-butyl)piperidin-4-yl)-1H-1,2,3-triazol-4-yl)(phenyl)methyl)amino)-8-chloro-4-((3-cyano-2,4-difluorophenyl)amino) quinoline-3-carbonitrile] | 608 nM | 13 nM |
| CC(C)(C)N1CCC(n2cc([C@@H](Nc3cc(Cl)c4ncc(C#N)c(Nc5ccc(F)cc5C#N)c4c3)c3ccccc3)nn2)CC1 [Example 471, (S)-6-(((1-(1-(tert-butyl)piperidin-4-yl)-1H-1,2,3-triazol-4-yl)(phenyl)methyl)amino)-8-chloro-4-((2-cyano-4-fluorophenyl)amino) quinoline-3-carbonitrile] | 8640 nM | 333 nM |
| N#Cc1cnc2c(Cl)cc(N[C@@H](c3ccccc3)c3cn(CCCN4CCCC4)nn3)cc2c1Nc1c(F)cc(F)cc1F [Example 472, (S)-8-chloro-6-((phenyl(1-(3-(pyrrolidin-1-yl)propyl)-1H-1,2,3-triazol-4-yl)methyl)amino)-4-((2,4,6-trifluorophenyl)amino) quinoline-3-carbonitrile] | 2360 nM | 96 nM |
| CC(C)(C)N1CCC(n2cc([C@@H](Nc3cc(Cl)c4ncc(C#N)c(Nc5c(F)cc(F)cc5F)c4c3)c3ccccc3)nn2)CC1 [Example 473, (S)-6-(((1-(1-(tert-butyl)piperidin-4-yl)-1H-1,2,3-triazol-4-yl)(phenyl)methyl)amino)-8-chloro-4-((2,4,6-trifluorophenyl)amino) quinoline-3-carbonitrile] | 784 nM | 59 nM |
| CC(C)(C)CCNc1c(C#N)cnc2c(Cl)cc(N[C@@H](c3ccccc3)c3cn(C4CCN(C(C)(C)C)CC4)nn3)cc12 [Example 474, (S)-6-(((1-(1-(tert-butyl)piperidin-4-yl)-1H-1,2,3-triazol-4 yl)(phenyl)methyl)amino)-8-chloro-4-((3,3-dimethylbutyl)amino) quinoline-3-carbonitrile] | 1570 nM | 68 nM |
| Cn1cc(CNc2c(C#N)cnc3c(Cl)cc(N[C@@H](c4ccccc4)c4cn(C5CCN(C(C)(C)C)CC5)nn4)cc23)cn1 [Example 475, (S)-6-(((1-(1-(tert-butyl)piperidin-4-yl)-1H-1,2,3-triazol-4-yl)(phenyl)methyl)amino)-8-chloro-4-(((1-methyl-1H-pyrazol-4-yl)methyl)amino)quinoline-3-carbonitrile] | > 10000 nM | 459 nM |
| Cn1ccc(CNc2c(C#N)cnc3c(Cl)cc(N[C@@H](c4ccccc4)c4cn(C5CCN(C(C)(C)C)CC5)nn4)cc23)n1 [Example 476, (S)-6-(((1-(1-(tert-butyl)piperidin-4-yl)-1H-1,2,3-triazol-4-yl)(phenyl)methyl)amino)-8-chloro-4-(((1-methyl-1H-pyrazol-3-yl)methyl)amino)quinoline-3-carbonitrile] | > 10000 nM | 1740 nM |
| Cn1nccc1CNc1c(C#N)cnc2c(Cl)cc(N[C@@H](c3ccccc3)c3cn(C4CCN(C(C)(C)C)CC4)nn3)cc12 [Example 477, (S)-6-(((1-(1-(tert-butyl)piperidin-4-yl)-1H-1,2,3-triazol-4-yl)(phenyl)methyl)amino)-8-chloro-4-(((1-methyl-1H-pyrazol-5-yl)methyl)amino)quinoline-3-carbonitrile] | 6650 nM | 243 nM |
| Cn1cc(Nc2c(C#N)cnc3c(Cl)cc(N[C@@H](c4ccccc4)c4cn(C5CCN(C(C)(C)C)CC5)nn4)cc23)cn1 [Example 478, (S)-6-(((1-(1-(tert-butyl)piperidin-4-yl)-1H-1,2,3-triazol-4-yl)(phenyl)methyl)amino)-8-chloro-4-((1-methyl-1H-pyrazol-4-yl)amino)quinoline-3-carbonitrile] | 5530 nM | 1050 nM |
| CC(C)(C)N1CCC(n2cc([C@@H](Nc3cc(Cl)c4ncc(C#N)c(Nc5cccc6[nH]c(=O)[nH]c56)c4c3)c3ccccc3)nn2)CC1 [Example 479, (S)-6-(((1-(1-(tert-butyl)piperidin-4-yl)-1H-1,2,3-triazol-4-yl)(phenyl)methyl)amino)-8-chloro-4-((2-oxo-2,3-dihydro-1H-benzo[d]imidazol-4-yl)amino) quinoline-3-carbonitrile] | > 10000 nM | 5280 nM |
| COc1ncccc1Nc1c(C#N)cnc2c(Cl)cc(N[C@@H](c3ccccc3)c3cn(C4CCN(C(C)(C)C)CC4)nn3)cc12 [Example 480, (S)-6-(((1-(1-(tert-butyl)piperidin-4-yl)-1H-1,2,3-triazol-4-yl)(phenyl)methyl)amino)-8-chloro-4-((2-methoxypyridin-3-yl)amino)quinoline-3-carbonitrile] | 8510 nM | 1220 nM |
| CC[C@@H](Nc1c(C#N)cnc2c(Cl)cc(N(CC)[C@@H](c3ccccc3)c3c[nH]nn3)cc12)c1ccccc1 [Example 481, 8-chloro-6-(ethyl((S)-phenyl(1H-1,2,3-triazol-4-yl)methyl)amino)-4-(((R)-1-phenylpropyl)amino) quinoline-3-carbonitrile] | 8800 nM | 298 nM |
| Cn1cc(Nc2c(C#N)cnc3c(Cl)cc(N[C@@H](c4ccccc4)c4c[nH]nn4)cc23)ccc1=O [Example 482, (S)-8-chloro-4-((1-methyl-6-oxo-1,6-dihydropyridin-3-yl)amino)-6-((phenyl (1H-1,2,3-triazol-4-yl)methyl)amino)quinoline-3-carbonitrile] | > 10000 nM | 332 nM |
| Cn1cc(Nc2c(C#N)cnc3c(Cl)cc(N[C@@H](c4ccccc4)c4cn(C5COC5)nn4)cc23)ccc1=O [Example 483, (S)-8-chloro-4-((1-methyl-6-oxo-1,6-dihydropyridin-3-yl)amino)-6-(((1-(oxetan-3-yl)-1H-1,2,3-triazol-4-yl)(phenyl)methyl)amino) quinoline-3-carbonitrile] | > 10000 nM | 387 nM |
| Cn1cc(Nc2c(C#N)cnc3c(Cl)cc(N[C@@H](c4ccccc4)c4cn(C5CCN(C(C)(C)C)CC5)nn4)cc23)ccc1=O [Example 484, (S)-6-(((1-(1-(tert-butyl)piperidin-4-yl)-1H-1,2,3-triazol-4-yl)(phenyl)methyl)amino)-8-chloro-4-((1-methyl-6-oxo-1,6-dihydropyridin-3-yl)amino)quinoline-3-carbonitrile] | > 10000 nM | 371 nM |
| C[C@@H](Nc1c(C#N)cnc2c(Cl)cc(N[C@@H](c3ccccc3)c3cn(C4CCN(C(C)(C)C)CC4)nn3)cc12)C(C)(C)C [Example 485, 6-(((S)-(1-(1-(tert-butyl)piperidin-4-yl)-1H-1,2,3-triazol-4-yl)(phenyl)methyl)amino)-8-chloro-4-(((R)-3,3-dimethylbutan-2-yl)amino) quinoline-3-carbonitrile] | 7240 nM | 306 nM |
